Test results: ChEMBL document CHEMBL1143878, “The design and synthesis of novel alpha-ketoamide-based p38 MAP kinase inhibitors” (Bioorg Med Chem Lett, 2008)

Legend:
THP-1 = experiment: Inhibition of LPS-induced TNFalpha production in human THP1 cells; type: functional, cell-based
[1] = target: T1, Mitogen-activated protein kinase 14 (Homo sapiens, UniProt Q16539); experiment: Inhibition of human p38-alpha kinase phosphorylation
[2] = target: T1, Mitogen-activated protein kinase 14; experiment: Inhibition of human p38-alpha kinase
[3] = Cmax in rat at 30 mg/kg, po; type: ADME, organism-based; design: dose 30 mg/kg, route oral; conditions: in vivo
[4] = Bioavailability in rat at 30 mg/kg, po; type: ADME, organism-based; conditions: in vivo
[5] = Clearance in rat at 10 mg/kg, iv; type: ADME, organism-based; design: dose 10 mg/kg, route intravenous; conditions: in vivo
[6] = Half life in rat at 30 mg/kg, po; type: ADME, organism-based; design: dose 30 mg/kg, route oral; conditions: in vivo
[7] = Volume of distribution at steady state in rat at 10 mg/kg, iv; type: ADME, organism-based; design: dose 10 mg/kg, route intravenous; conditions: in vivo, read-out: Vdss
[8] = AUC in rat at 30 mg/kg, po; type: ADME, organism-based; design: dose 30 mg/kg, route oral; conditions: plasma
[9] = Tmax in rat at 30 mg/kg, po; type: ADME, organism-based; design: dose 30 mg/kg, route oral; conditions: in vivo

T1 sequence (Q16539 whole entry): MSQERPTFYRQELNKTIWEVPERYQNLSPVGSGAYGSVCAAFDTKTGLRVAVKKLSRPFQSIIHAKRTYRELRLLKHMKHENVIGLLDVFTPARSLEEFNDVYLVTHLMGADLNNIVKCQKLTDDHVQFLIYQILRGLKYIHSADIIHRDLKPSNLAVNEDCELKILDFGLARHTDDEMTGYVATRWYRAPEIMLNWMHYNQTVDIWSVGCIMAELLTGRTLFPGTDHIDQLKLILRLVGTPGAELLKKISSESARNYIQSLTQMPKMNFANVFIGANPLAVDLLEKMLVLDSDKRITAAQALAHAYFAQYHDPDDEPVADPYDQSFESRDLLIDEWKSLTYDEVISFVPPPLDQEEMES

SMILES: Cc1cccc(-n2nc(C(C)(C)C)cc2NC(=O)C(=O)c2ccc(OCCN3CCOCC3)c3ccccc23)c1
- IC50 (THP-1): 340 nM

SMILES: Cc1ccc(-n2nc(C(C)(C)C)cc2NC(=O)c2n[nH]c3ccccc23)cc1
- IC50 (THP-1): 2900 nM

SMILES: C[S+]([O-])c1ccc(-c2nc(-c3ccc(F)cc3)c(-c3ccncc3)[nH]2)cc1 (stereo not given) [SB-203580]
- IC50 (THP-1): 16 nM

SMILES: Cc1ccc(-n2nc(C(C)(C)C)cc2NC(=O)Nc2ccc(OCCN3CCOCC3)c3ccccc23)cc1 [DORAMAPIMOD]
- IC50 (THP-1): 13 nM

SMILES: Cc1ccc(-n2nc(C(C)(C)C)cc2NC(=O)C(=O)c2ccc(OCCN3CCOCC3)c3ccccc23)cc1F
- IC50 (THP-1): 220 nM

SMILES: Cc1ccc(-n2nc(C(C)(C)C)cc2NC(=O)C(O)c2ccc(OCCN3CCOCC3)c3ccccc23)cc1 (stereo not given)
- IC50 (THP-1): 970 nM

SMILES: CC(C)(C)c1cc(NC(=O)C(=O)c2ccc(OCCN3CCOCC3)c3ccccc23)n(-c2cccc(F)c2)n1
- IC50 (THP-1): 440 nM

SMILES: Cc1ccc(-n2nc(C(C)(C)C)cc2NC(=O)C(=O)c2ccc(OCCN3CCOCC3)c3ccccc23)cc1C
- IC50 (THP-1): 450 nM

SMILES: Cc1ccc(-n2nc(C(C)(C)C)cc2NC(=O)C(=O)c2ccc(OCCN3CCOCC3)c3ccc(Cl)cc23)cc1
- IC50 (THP-1): 2600 nM

SMILES: Cc1ccccc1-n1nc(C(C)(C)C)cc1NC(=O)C(=O)c1ccc(OCCN2CCOCC2)c2ccccc12
- IC50 (THP-1): 1500 nM

SMILES: CC(C)(C)c1cc(NC(=O)C(=O)c2ccc(OCCN3CCOCC3)c3ccccc23)n(-c2ccccc2)n1
- IC50 (THP-1): 2100 nM

SMILES: Cn1nc(C(C)(C)C)cc1NC(=O)C(=O)c1ccc(OCCN2CCOCC2)c2ccccc12
- IC50 [1]: 300 nM
- IC50 [2]: 150 nM

SMILES: Cc1ccc(-n2nc(C(C)(C)C)cc2NC(=O)/C(=N\O)c2ccc(OCCN3CCOCC3)c3ccccc23)cc1
- IC50 (THP-1): 23 nM
- Cmax [3]: 4500 ng/mL
- bioavailability [4]: 100%
- clearance [5]: 15 mL/min/kg
- half-life [6]: 1.4 h
- Vd [7]: 1.9 L/kg
- IC50 [1]: 150 nM
- IC50 [2]: 23 nM
- AUC [8]: 36000 ng·h/mL
- Tmax [9]: 1 h

SMILES: O=c1ncn2nc(Sc3ccc(F)cc3F)ccc2c1-c1c(Cl)cccc1Cl [NEFLAMAPIMOD]
- IC50 (THP-1): 39 nM

SMILES: Cc1ccc(-n2nc(C(C)(C)C)cc2NC(=O)C(=O)c2ccc(OCCN3CCOCC3)c3ccccc23)cc1
- IC50 (THP-1): 440 nM
- IC50 [1]: 310 nM
- IC50 [2]: 320 nM

SMILES: CO/N=C(\C(=O)Nc1cc(C(C)(C)C)nn1-c1ccc(C)cc1)c1ccc(OCCN2CCOCC2)c2ccccc12
- IC50 (THP-1): 1500 nM

SMILES: CC(C)(C)c1cc(NC(=O)C(=O)c2ccc(OCCN3CCOCC3)c3ccccc23)[nH]n1
- IC50 (THP-1): 1500 nM

SMILES: Cc1ccc(-n2nc(C(C)(C)C)cc2NC(=O)Cc2ccc(OCCN3CCOCC3)c3ccccc23)cc1
- IC50 (THP-1): 1400 nM
